Source: patent US20080207645A1, “Pyridothienopyrimidine Derivatives” (priority 2004, published 2008)

System: PDE4
Assay: PDE4 Assay Procedure ([3H]-cAMP SPA)
Type: biochemical
Conditions: 15 nM [3H]-cAMP, 1 hour at room temperature, SPA beads
Description: Compounds to be tested were resuspended in DMSO at a stock concentration of 1 mM. […] These dilutions were done in 96-well plates. In some cases, plates containing diluted compounds were frozen before being assayed. In these cases, the plates were thawed at room temperature and stirred for 15 minutes.
Ten microliters of the diluted compounds were poured into a “low binding” assay plate. […] The reaction was initiated by adding ten microliters of a solution containing PDE4. The plate was then incubated under stirring for 1 hour at room temperature. After incubation the reaction was stopped with 50 microlitres of SPA beads, and the reaction was allowed to incubate for another 20 minutes at room temperature before measuring radioactivity using standard instrumentation.
The reaction mixture was prepared by adding 90 ml of H2O to 10 ml of 10× assay buffer (500 mM Tris pH 7.5, 83 mM MgCl2, 17 mM EGTA), and 40 microlitres 1 μCi/μL [3H]-cAMP. SPA beads solution was prepared by adding 500 mg to […] H2O for a final concentration of 20 mg/ml beads and 18 mM zinc sulphate.

Row | SMILES | IC50
1 | CC1(C)Cc2c(c(N3CCOCC3)nc3sc4c(NCCN5CCOCC5)ncnc4c23)CO1 [Example 20, 2,2-Dimethyl-5-morpholin-4-yl-N-(2-morpholin-4-ylethyl)-1,4-dihydro-2H-pyrano[4″,3″:4′,5′]pyrido[3′,2′:4,5]thieno[3,2-d]pyrimidin-8-amine] | 26 nM
2 | CC1(C)Cc2c(c(N3CCCC3)nc3sc4c(NCCN5CCOCC5)ncnc4c23)CO1 [Example 27, 2,2-Dimethyl-5-pyrrolidin-1-yl-N-(2-morpholin-4-ylethyl)-1,4-dihydro-2H-pyrano[4″,3″:4′,5′]pyrido[3′,2′:4,5]thieno[3,2-d]pyrimidin-8-amine] | 23 nM
3 | CC1(C)Cc2c(c(N3CCOCC3)nc3sc4c(NCc5cccnc5)ncnc4c23)CO1 [Example 36, 2,2-dimethyl-5-morpholin-4-yl-N-(pyridin-3-ylmethyl)-1,4-dihydro-2H-pyrano[4″,3″:4′,5′]pyrido[3′,2′:4,5]thieno[3,2-d]pyrimidin-8-amine] | 4.6 nM
4 | CC1(C)Cc2c(c(N3CCOCC3)nc3sc4c(NCc5ccccn5)ncnc4c23)CO1 [Example 37, 2,2-dimethyl-5-morpholin-4-yl-N-(pyridin-2-ylmethyl)-1,4-dihydro-2H-pyrano[4″,3″:4′,5′]pyrido[3′,2′:4,5]thieno[3,2-d]pyrimidin-8-amine] | 21 nM
5 | CCCc1nc2sc3c(NCCN4CCOCC4)ncnc3c2c2c1COC(C)(C)C2 [Example 38, 2,2-dimethyl-N-(2-morpholin-4-ylethyl)-5-propyl-1,4-dihydro-2H-pyrano[4″,3″:4′,5′]pyrido[3′,2′:4,5]thieno[3,2-d]pyrimidin-8-amine] | 19 nM
6 | CC(C)c1nc2sc3c(NCc4ccccn4)ncnc3c2c2c1COC(C)(C)C2 [Example 46, 2,2-Dimethyl-5-isopropyl-N-(pyridin-2-ylmethyl)-1,4-dihydro-2H-pyrano[4″,3″:4′,5′]pyrido[3′,2′:4,5]thieno[3,2-d]pyrimidin-8-amine] | 14 nM
7 | CC1(C)Cc2c(c(N3CCOCC3)nc3sc4c(NCc5ccncc5)ncnc4c23)CO1 [Example 55, 2,2-Dimethyl-5-morpholin-4-yl-N-(pyridin-4-ylmethyl)-1,4-dihydro-2H-pyrano[4″,3″:4′,5′]pyrido[3′,2′:4,5]thieno[3,2-d]pyrimidin-8-amine] | 19 nM
8 | COCCN(C)c1nc2sc3c(NCc4cccnc4)ncnc3c2c2c1COC(C)(C)C2 [Example 59, N-(2-Methoxyethyl)-N,2,2-trimethyl-N-(pyridin-3-ylmethyl)-1,4-dihydro-2H-pyrano[4″,3″:4′,5′]pyrido[3′,2′:4,5]thieno[3,2-d]pyrimidine-5,8-diamine.] | 61 nM
9 | CC1(C)Cc2c(c(N3CCCC3)nc3sc4c(NCc5ccncc5)ncnc4c23)CO1 [Example 71, 2,2-Dimethyl-N-(pyridin-4-ylmethyl)-5-pyrrolidin-1-yl-1,4-dihydro-2H-pyrano[4″,3″:4′,5′]pyrido[3′,2′:4,5]thieno[3,2-d]pyrimidin-8-amine] | 32 nM
10 | CCCc1nc2sc3c(NCc4cccnc4)ncnc3c2c2c1COC(C)(C)C2 [Example 72, 2,2-Dimethyl-5-propyl-N-(pyridin-3-ylmethyl)-1,4-dihydro-2H-pyrano[4″,3″:4′,5′]pyrido[3′,2′:4,5]thieno[3,2-d]pyrimidin-8-amine] | 24 nM
11 | CC(C)Cc1nc2sc3c(NCc4cccnc4)ncnc3c2c2c1COC(C)(C)C2 [Example 74, 5-Isobutyl-2,2-dimethyl-N-(pyridin-3-ylmethyl)-1,4-dihydro-2H-pyrano[4″,3″:4′,5′]pyrido[3′,2′:4,5]thieno[3,2-d]pyrimidin-8-amine] | 22 nM
12 | CCC1(C)Cc2c(c(N3CCOCC3)nc3sc4c(NCc5cccnc5)ncnc4c23)CO1 (stereo not drawn) [Example 80, 2-Ethyl-2-methyl-5-morpholin-4-yl-N-(pyridin-3-ylmethyl)-1,4-dihydro-2H-pyrano[4″,3″:4′,5′]pyrido[3′,2′:4,5]thieno[3,2-d]pyrimidin-8-amine] | 13 nM
